Test results published in patent US20220175882A1, “BETA-CASEIN A2 AND REDUCING OR […] OF LACTOSE INTOLERANCE” (THE A2 MILK COMPANY LIMITED, priority 2013, published 2022).
Entries after “also recorded” stand apart in the source; their conditions may differ. Where a SMILES comes first, the peptide text is derived from it.

Columns and labels:
[1] = tested on: Caco-2 Gut epithelial cells; conditions: read-out: IC50, inhibition of cysteine uptake; GI epithelial cells (FIG. 4)
Description: (§1) Pre-treatment in cells was performed for different time points for 30 min, 4, 24 and 48 h as described previously (Trivedi M., et al.; Mol. Pharm., 2014). SH-SY5Y human neuronal cells and Caco-2 Gut epithelial cells were plated in six-well plates and were pretreated with drugs and incubated for various times prior to measuring uptake. Media were aspirated and cells were washed with 600 μL of HBSS at 37° C. Non-radioactive HBSS was aspirated, replaced with 600 μL of 37° C. HBSS containing [^35S]-cysteine (1 μCl/1 mL), 10 μM unlabelled cysteine and 100 μM DTT, and the cells were incubated for 5 min. The [^35S]-cysteine/HBSS mixture was aspirated and treatment was terminated by two washes with ice-cold HBSS. Cells were then lysed with 600 μL of dH2O, scraped, collected in 1.5 mL microcentrifuge tubes, and sonicated for 10 s. 100 μL of each sample was aliquoted for protein assay. 200 μL of each sample (in triplicate) was aliquoted into scintillation vials with 4 mL of scintillation fluid, vortexed, and counted for radioactivity (normalised against protein content). […] The symbol * used in these figures indicates a statistically significant difference (p<0.05) compared against the untreated control, and the symbol # indicates a statistically significant difference (p<0.005) compared against the untreated control.

[2] = tested on: SH-SY5Y human neuronal cells
Description: as §1

[3] = tested on: SH-SY5Y neuronal cells; test: Intracellular cysteine, GSH and SAM/SAH levels by HPLC with electrochemical detection; format: cell-based, human
Description: Media was aspirated and the cells were washed twice with 1 mL of ice cold HBSS. HBSS was aspirated and 0.6 mL ice cold dH2O was added to the cells. The cells were scraped from the flask/dish and suspended in dH2O. […] The remaining lysate was added to a microcentrifuge tube and an equal volume of 0.4 N perchloric acid was added, followed by incubation on ice for 5 min. Samples were centrifuged at 5,000×g and the supernatant transferred to new microcentrifuge tubes.
The separation of redox and methylation pathway metabolites was accomplished using an Agilent Eclipse XDB-C8 analytical column (3×150 mm; 3.5 μm) and an Agilent Eclipse XDB-C8 (4.6×12.5 mm; 5 μm) guard column. […] The flow rate was initially set at 0.6 mL/min and a step gradient was used: 0-9 min 0% B, 9-19 min 50% B, 19-30 min 50% B. The column was then equilibrated with 5% B for 12 min prior to the next run. Temperature was maintained at 27° C. […] Sample concentrations were determined from the peak areas of metabolites using standard calibration curves and ESA-supplied HPLC software. Sample concentrations were normalised against protein content. In some cases samples were diluted in mobile phase as needed or up to 50 μl of sample was injected to assure that thiol levels were within the range of the standard curve.

[4] = tested on: SH-SY5Y cells; test: DNA methylation by MBD-seq (differentially methylated transcripts); format: cell-based, human; conditions: cells treated 4 hours with 1 μM BCM-7; FDR<0.1, p<0.05
Description: Global DNA methylation levels induced by BCM-7 were investigated using methyl-CpG binding domain (MBD) protein-enriched genome sequencing (MBD-seq) as described previously (Trivedi M., et al., Mol. Pharm. 2014), whereas mRNA translation microarray data was obtained using Agilent V3 microarray chip, from non-treated control SH-SY5Y cells and cells treated for 4 hours with 1 μM BCM-7.
Genomic DNA was extracted from samples with the Easy DNA kit (Invitrogen K1800-01) using the appropriate protocol for cell lines. Fragmentation was performed on Covaris S2 with the following settings: duty cycle 10%, intensity 5, 200 cycles per burst during 200 sec. Fragments were obtained having an average length of 200 bp. The power mode is frequency sweeping, temperature 6-8° C., water level 12. A maximum of 5 μg was loaded in 130 μl Tris-EDTA in a microtube with AFA intensifier. For samples with less DNA input (down to 500 ng) the DNA was diluted 1:5 in TrisEDTA. DNA with an input from 5-3 μg was analysed on the Agilent 2100 using a DNA 1000 chip. DNA with an input lower than 3 μg was concentrated in a rotary evaporator to 25 μl and the fragment distribution was checked on a high sensitivity DNA chip. Methylated DNA was captured using the MethylCap kit (Diagenode, Belgium). The yield was typically between 0.5 and 8 ng of total captured DNA. Fragments were subsequently sequenced using an Illumina Genome Analyzer II. The concentrations of fragmented and captured DNA were determined on a Fluostar Optima plate reader with the Quant-iT PicoGreen dsDNA Assay Kit (Invitrogen P7589) at 480/520 nm.
To prepare the DNA library, a DNA Sample Prep Master Mix Set 1 (NEB E6040) was used in combination with a Multiplexing Sample Preparation Oligo Kit (96 samples, Illumina PE-400-1001). The entire fragmented DNA was utilised and followed the NEB protocols, using the multiplexing sequencing adapters provided in the Multiplexing Sample Preparation Oligo Kit. Size selection of the library was carried out on a 2% agarose gel (Low Range Ultra Agarose Biorad 161-3107). […] A fragment of 300 bps +/−50 bps was excised and eluted on a Qiagen Gel Extraction Kit column (Qiagen 28704) and eluted in 23 μl EB.
The Illumina library amplification index protocol was used with the following alterations: 22 μl DNA was used and performed 21 cycles run. The sample was purified on a Qiaquick PCR Purification column (Qiagen 28101) and eluted in 50 μl EB, 1:5 diluted, and concentrated in a rotary evaporator to 10 μl. 1 μl was applied to a Agilent 2100 HS DNA chip and the concentration was determined by smear analysis on the Agilent 2100. The samples were diluted to 10 nM. After denaturation with NaOH the samples were diluted to […]. The Paired-End flow cell was prepared according to the Cluster Station User Guide. […]

Question: With `CC[C@H](C)[C@H](NC(=O)[C@@H]1CCCN1C(=O)CNC(=O)[C@@H]1CCCN1C(=O)[C@H](Cc1ccccc1)NC(=O)[C@@H]1CCCN1C(=O)[C@@H](N)Cc1ccc(O)cc1)C(=O)O` [BCM-7, beta-casomorphin-7] (H-YPFPGPI-OH; N-terminus and C-terminus assumed) as the molecule, how does the IC50 [1] read?
Answer: The IC50 was 15.9 nM.

Question: And the “Receptor mediating the effect on cysteine uptake” value ([2]; in presence of CTAP (selective μ-antagonist) or naltrindole (delta antagonist), FIG. 6)?
Answer: Its value is “μ-opioid receptor mediated”.

Question: What about the “Time course of inhibition of cysteine uptake” value ([2]; neuronal cells and GI epithelial cells (FIG. 5), 30 min to 48 h exposure) of the same molecule?
Answer: The value was “fully developed after 30 minutes and was sustained through 48 hours”.

Question: And the IC50 ([2]; read-out: IC50, inhibition of cysteine uptake, neuronal cells (FIG. 4))?
Answer: The IC50 was 1.31 nM.

Question: And the “Cysteine and glutathione (GSH) levels” value ([3]; 30 min, 4 h, 24 h)?
Answer: The value was “time-dependent decreases”.

Question: What about the “Methylation capacity (SAM/SAH ratio)” value ([3]; different time points (FIG. 7)) of the same molecule?
Answer: The value was “affected”.

Question: What about the “Differentially methylated transcripts: Galactose metabolism” value [4] of the same molecule?
Answer: The value was “GALK2 and GALR2 and GALT and GALR1 and CHST1 and NPY and PYY and GKN1”.

Question: What about the “Differentially methylated transcripts: Gastric Acid secretion” value [4] of the same molecule?
Answer: The value was “SCTR and OXTR and VIPR1 and SST and PPARGC1A and PGC”.

Question: And the “Differentially methylated transcripts: Lactose Biosynthetic pathway” value [4]?
Answer: Its value is “LGALS12; also recorded: B4GALT1; also recorded: B4GALT2”.

Question: What about the “Differentially methylated transcripts: Lactose metabolism” value [4] of the same molecule?
Answer: Its value is “LCT”.
